The results in this text go back to patent US20250282802A1, “P[…] AND METHODS” (priority 2020, published 2025).

The test system of data set [1] is T98G (glioblastoma). The data set can be described thus: Cytotoxicity profiling (Alamar Blue), T98G. Type of data set: cell-based, human. On the procedure:
(§1) FIG. 8. Cytotoxicity of pantaphos across various cancer cell lines. Assays were conducted as described (mBio. 2021 Feb. 2; 12(1):e03402-20), using the Alamar Blue method with 72-hour treatment using Raptinal ([…]) as Dead cell control; n=3. Cell seeding densities: CT26 (colon carcinoma) 2000 c/w; HOS (osteosarcoma) 2500 c/w; ES-2 (ovarian carcinoma), HCT-116 (colorectal carcinoma), A-549 (lung carcinoma), A-172 (glioblastoma), D54 (glioblastoma), U87 (glioblastoma), T98G (glioblastoma), SK-ML-28 (melanoma), MCF-7 (breast cancer), AM38 (glioblastoma) and MDA-MB-231 (breast cancer) 3000 c/w; U118MG (malignant glioma) 4000 c/w; HepG2 (liver cancer) 8000 c/w. c/w=cells per well. […]
(§2) Cell culture cytotoxicity screening. The compounds were evaluated for their ability to kill cancer cell lines in culture, using HOS (osteosarcoma); ES-2 (ovarian cancer); HCT 116 (colon cancer); A549 (lung carcinoma); and A172 (glioma) cells. Human skin fibroblast cells (HFF-1) were also assessed. […] 72 hours post-treatment, cell viability was assessed using the Alamar Blue method (http://www.bio-rad-antibodies.com/measuring-cytotoxicity-proliferation-spectrophotometry-fluorescence-alamarBlue.html). […] Conversion of Alamar Blue was measured with a plate reader (SpectraMax M3; Molecular Devices) by fluorescence (excitation wavelength: 555 nm; emission wavelength: 585 nm; cutoff 570 nm; autogain). […]
(In general: The colour change of resazurin is a common sign of viable cells or microbes.)

For data set [2], the system named is D54 (glioblastoma). Put plainly: Cytotoxicity profiling (Alamar Blue), D54. Conditions: Homo sapiens, 72-hour treatment. The class given is cell-based. On the procedure:
as §1, §2

In data set [3] the test system is MCF-7 (breast cancer). Put plainly: Cytotoxicity profiling (Alamar Blue), MCF-7. Type of data set: cell-based, human. On the procedure: (§3) FIG. 8. Cytotoxicity of pantaphos across various cancer cell lines. Assays were conducted as described (mBio. 2021 Feb. 2; 12(1):e03402-20), using the Alamar Blue method with 72-hour treatment using Raptinal ([…]) as Dead cell control; n=3. Cell seeding densities: CT26 (colon carcinoma) 2000 c/w; HOS (osteosarcoma) 2500 c/w; ES-2 (ovarian carcinoma), HCT-116 (colorectal carcinoma), A-549 (lung carcinoma), A-172 (glioblastoma), D54 (glioblastoma), U87 (glioblastoma), T98G (glioblastoma), SK-ML-28 (melanoma), MCF-7 (breast cancer), AM38 (glioblastoma) and MDA-MB-231 (breast cancer) 3000 c/w; U118MG (malignant glioma) 4000 c/w; HepG2 (liver cancer) 8000 c/w. c/w=cells per well. IC50 and Emax values shown in Table 6 were extracted from the raw data plotted in FIG. 8.
(§4) Cell culture cytotoxicity screening. The compounds were evaluated for their ability to kill cancer cell lines in culture, using HOS (osteosarcoma); ES-2 (ovarian cancer); HCT 116 (colon cancer); A549 (lung carcinoma); and A172 (glioma) cells. Human skin fibroblast cells (HFF-1) were also assessed. Cells were seeded (3000 cells well^−1 for ES-2, HCT 116, A549 and A172; 4000 cells well^−1 for HFF-1 and 2500 cells well^−1 for HOS) in a 96-well plate and allowed to attach overnight. Cells were treated with pantaphos in water. The concentrations of the tested compounds were 5 nM to 100 μM (1% water final; 100 μl well^−1). Raptinal (50 μM) was used as a dead control. On each plate, five technical replicates per compound were performed. 72 hours post-treatment, cell viability was assessed using the Alamar Blue method (http://www.bio-rad-antibodies.com/measuring-cytotoxicity-proliferation-spectrophotometry-fluorescence-alamarBlue.html). […] Conversion of Alamar Blue was measured with a plate reader (SpectraMax M3; Molecular Devices) by fluorescence (excitation wavelength: 555 nm; emission wavelength: 585 nm; cutoff 570 nm; autogain). Percentage death was determined by normalizing to water-treated cells and Raptinal-treated cells. […]

The test system of data set [4] is ES-2 (human ovarian cancer). The data set can be described thus: Cell culture cytotoxicity screening (Alamar Blue), ES-2. The class given is cell-based. Conditions: for IC50: ES-2, Alamar Blue. The protocol:
as §3, §4

In data set [5] the test system is AM38 (glioblastoma). Put plainly: Cytotoxicity profiling (Alamar Blue), AM38. The class given is cell-based, human. The protocol:
as §3, §4

Data set [6] concerns MDA-MB-231 (breast cancer). Put plainly: Cytotoxicity profiling (Alamar Blue), MDA-MB-231. The class given is cell-based, human. On the procedure: as §3, §4
Data set [7] concerns HFF-1 (human fibroblast cells). The data set can be described thus: Cell culture cytotoxicity screening (Alamar Blue), HFF-1. Type of data set: cell-based. Conditions: HFF-1, Alamar Blue, 72 hours. The protocol:
Cell culture cytotoxicity screening. The compounds were evaluated for their ability to kill cancer cell lines in culture, using HOS (osteosarcoma); ES-2 (ovarian cancer); HCT 116 (colon cancer); A549 (lung carcinoma); and A172 (glioma) cells. Human skin fibroblast cells (HFF-1) were also assessed. Cells were seeded (3000 cells well^−1 for ES-2, HCT 116, A549 and A172; 4000 cells well^−1 for HFF-1 and 2500 cells well^−1 for HOS) in a 96-well plate and allowed to attach overnight. Cells were treated with pantaphos in water. The concentrations of the tested compounds were 5 nM to 100 μM (1% water final; 100 μl well^−1). Raptinal (50 μM) was used as a dead control. On each plate, five technical replicates per compound were performed. 72 hours post-treatment, cell viability was assessed using the Alamar Blue method (http://www.bio-rad-antibodies.com/measuring-cytotoxicity-proliferation-spectrophotometry-fluorescence-alamarBlue.html). Alamar Blue solution (10 μl of 440 μM resazurin in sterile 1×PBS) was added to each well, and the plate was incubated for 3-4 hrs. Conversion of Alamar Blue was measured with a plate reader (SpectraMax M3; Molecular Devices) by fluorescence (excitation wavelength: 555 nm; emission wavelength: 585 nm; cutoff 570 nm; autogain). Percentage death was determined by normalizing to water-treated cells and Raptinal-treated cells. […]

Where only a bound is given, the exact number is not on record here.

As a reminder, the IC50 is the concentration needed to halve the response being measured. The low end stands for greater potency, the high end for weaker potency. The Emax is the size of the effect at its maximum, as opposed to the concentration needed. Turning to `O=C(O)/C=C(\C(=O)O)C(O)P(=O)(O)O` (centres unmarked) [pantaphos, 2-(hydroxy(phosphono)methyl)maleate], the IC50 in data set [1] (Homo sapiens, T98G, Alamar Blue, 72-hour treatment (Table 6)) was > 100 µM; in data set [3] (Homo sapiens, MCF7, MCF-7, Alamar Blue, 72-hour treatment (Table 6)) it was 2880 ± 6280 nM; in data set [4] (72-hour treatment (Table 6)), > 100 µM; in data set [4] (Homo sapiens, 72 hours), > 100 µM; in data set [5] (Homo sapiens, AM-38, AM38, Alamar Blue, 72-hour treatment (Table 6)), 3.97 ± 1.01 µM; in data set [6] (Homo sapiens, MDA-MB-231, Alamar Blue, 72-hour treatment (Table 6)), 2680 ± 230 nM. For the same compound, in data set [7], it took 6.69 ± 0.29 µM to reach half-maximal inhibition (IC50). In addition, the “sensitivity of the cell line to pantaphos, in words” value in data set [1] (glioblastoma cell line printed as TG98) is listed as “resistant”. The Emax in data set [2] is 46 to 58%; in data set [3] (Homo sapiens, MCF7, MCF-7, Alamar Blue, 72-hour treatment), 90 to 92%; in data set [5] (Homo sapiens, AM-38, AM38, Alamar Blue, 72-hour treatment) it was 74 to 78%; in data set [6] (Homo sapiens, MDA-MB-231, Alamar Blue, 72-hour treatment), 91%; in data set [7] (read-out: Emax = percentage cell death (converted)), 85%. Moreover, the “sensitivity of the cell line to the compound, in words” value in data set [3] (MCF-7), in data set [5] (AM38) and in data set [6] (MDA-MB-231) was “sensitive” each time. Further, the “cytotoxicity at the maximum dose, in words” value in data set [4] (ES-2, maximum dose) is “unaffected”.
